# Test results as given in patent publication US20190284148A1, “MICROBIOCIDAL OXADIAZOLE DERIVATIVES” (SYNGENTA PARTICIPATIONS AG, priority 2016, published 2019).
# Key:
# [1] = test system: Glomerella Lagenarium (Colletotrichum Lagenarium); assay: Glomerella lagenarium (Colletotrichum lagenarium) liquid culture / cucumber / preventative (anthracnose); type: cell-based; settings: Colletotrichum orbiculare; 20 ppm in the applied formulation; liquid culture in PDB, 24° C., 3 to 4 days after application; read-out: disease control compared to untreated control (inhibition of growth measured photometrically)
# Method: Mycelia fragments or conidia suspensions of a fungus prepared either freshly from liquid cultures of the fungus or from cryogenic storage, are directly mixed into nutrient broth. DMSO solutions of the test compound (max. 10 mg/ml) are diluted with 0.025% Tween20 by a factor of 50 and 10 μl of this solution is pipetted into a microtiter plate (96-well format). The nutrient broth containing the fungal spores/mycelia fragments is then added to give an end concentration of the tested compound. The test plates are incubated in the dark at 24° C. and 96% relative humidity. The inhibition of fungal growth is determined photometrically after 2 to 7 days, depending on the pathosystem, and percent antifungal activity relative to the untreated check is calculated.
# Conidia of the fungus from cryogenic storage are directly mixed into nutrient broth (PDB—potato dextrose broth). After placing a (DMSO) solution of test compound into a microtiter plate (96-well format), the nutrient broth containing the fungal spores is added. The test plates are incubated at 24° C. and the inhibition of growth is measured photometrically 3 to 4 days after application.
# The following compounds at 20 ppm in the applied formulation give at least 80% disease control in this test when compared to untreated control under the same conditions, which show extensive disease development.
# [2] = test system: Puccinia Recondita f. sp. Tritici; assay: Puccinia recondita f. sp. tritici / wheat / leaf disc preventative (brown rust); type: in vivo; settings: foliar, 200 ppm in the applied formulation, wheat leaf segments cv. Kanzler, preventative (inoculated 1 day after application), assessed 7 to 9 days after application, read-out: disease control compared to untreated control leaf disks
# Method: Leaf disks or leaf segments of various plant species are cut from plants grown in a greenhouse. The cut leaf disks or segments are placed in multiwell plates (24-well format) onto water agar. The leaf disks are sprayed with a test solution before (preventative) or after (curative) inoculation. Compounds to be tested are prepared as DMSO solutions (max. 10 mg/ml) which are diluted to the appropriate concentration with 0.025% Tween20 just before spraying. The inoculated leaf disks or segments are incubated under defined conditions (temperature, relative humidity, light, etc.) according to the respective test system. A single evaluation of disease level is carried out 3 to 14 days after inoculation, depending on the pathosystem. Percent disease control relative to the untreated check leaf disks or segments is then calculated. Wheat leaf segments cv. Kanzler were placed on agar in multiwell plates (24-well format) and sprayed with the formulated test compound diluted in water. The leaf disks were inoculated with a spore suspension of the fungus 1 day after application. The inoculated leaf segments were incubated at 19° C. and 75% relative humidity (rh) under a light regime of 12 hours light/12 hours darkness in a climate cabinet and the activity of a compound was assessed as percent disease control compared to untreated when an appropriate level of disease damage appears in untreated check leaf segments (7 to 9 days after application). The following compounds at 200 ppm in the applied formulation give at least 80% disease control in this test when compared to untreated control leaf disks under the same conditions, which show extensive disease development.
# [3] = test system: Puccinia Recondita f. sp. Tritici; assay: Puccinia recondita f. sp. tritici / wheat / leaf disc curative (brown rust); type: in vivo; settings: foliar, 200 ppm in the applied formulation, wheat leaf segments cv. Kanzler, curative (applied 1 day after inoculation), assessed 6 to 8 days after application, read-out: disease control compared to untreated control leaf disks
# Method: Leaf disks or leaf segments of various plant species are cut from plants grown in a greenhouse. The cut leaf disks or segments are placed in multiwell plates (24-well format) onto water agar. The leaf disks are sprayed with a test solution before (preventative) or after (curative) inoculation. Compounds to be tested are prepared as DMSO solutions (max. 10 mg/ml) which are diluted to the appropriate concentration with 0.025% Tween20 just before spraying. The inoculated leaf disks or segments are incubated under defined conditions (temperature, relative humidity, light, etc.) according to the respective test system. A single evaluation of disease level is carried out 3 to 14 days after inoculation, depending on the pathosystem. Percent disease control relative to the untreated check leaf disks or segments is then calculated.
# Wheat leaf segments cv. Kanzler are placed on agar in multiwell plates (24-well format). The leaf segments are then inoculated with a spore suspension of the fungus. Plates were stored in darkness at 19° C. and 75% relative humidity. The formulated test compound diluted in water was applied 1 day after inoculation. The leaf segments were incubated at 19° C. and 75% relative humidity under a light regime of 12 hours light/12 hours darkness in a climate cabinet and the activity of a compound was assessed as percent disease control compared to untreated when an appropriate level of disease damage appears in untreated check leaf segments (6 to 8 days after application).
# The following compounds at 200 ppm in the applied formulation give at least 80% disease control in this test when compared to untreated control leaf disks under the same conditions, which show extensive disease development.
Compound,inhibition at 20 ppm [1],melting point,pest or weed control at 200 ppm [2],pest or weed control at 200 ppm [3]
"CC(=O)Nc1ccc(-c2noc(C(F)(F)F)n2)cc1Cl [Compound 1.1, N-[2-chloro-4-[5-(trifluoromethyl)-1,2,4-oxadiazol-3-yl]phenyl]acetamide]",≥ 80%,155 to 170 °C,–,–
"COCC(=O)Nc1ccc(-c2noc(C(F)(F)F)n2)cc1Cl [Compound 1.2, N-[2-chloro-4-[5-(trifluoromethyl)-1,2,4-oxadiazol-3-yl]phenyl]-2-methoxy-acetamide]",≥ 80%,77 to 84 °C,–,–
"CC(=O)Nc1ccc(-c2noc(C(F)(F)F)n2)cc1C [Compound 1.3, N-[2-methyl-4-[5-(trifluoromethyl)-1,2,4-oxadiazol-3-yl]phenyl]acetamide]",≥ 80%,153 to 179 °C,≥ 80%,≥ 80%
"CCC(=O)Nc1ccc(-c2noc(C(F)(F)F)n2)cc1C [Compound 1.4, N-[2-methyl-4-[5-(trifluoromethyl)-1,2,4-oxadiazol-3-yl]phenyl]propanamide]",≥ 80%,178 to 185 °C,–,–
"COCC(=O)Nc1ccc(-c2noc(C(F)(F)F)n2)cc1C [Compound 1.5, 2-methoxy-N-[2-methyl-4-[5-(trifluoromethyl)-1,2,4-oxadiazol-3-yl]phenyl]acetamide]",≥ 80%,73 to 80 °C,≥ 80%,–
"CCC(=O)Nc1ccc(-c2noc(C(F)(F)F)n2)cc1F [Compound 1.6, N-[2-fluoro-4-[5-(trifluoromethyl)-1,2,4-oxadiazol-3-yl]phenyl]propanamide]",≥ 80%,123 to 128 °C,–,≥ 80%
"CC(=O)Nc1ccc(-c2noc(C(F)(F)F)n2)cc1F [Compound 1.7, N-[2-fluoro-4-[5-(trifluoromethyl)-1,2,4-oxadiazol-3-yl]phenyl]acetamide]",≥ 80%,120 to 126 °C,≥ 80%,≥ 80%
"COCC(=O)Nc1ccc(-c2noc(C(F)(F)F)n2)cc1F [Compound 1.8, N-[2-fluoro-4-[5-(trifluoromethyl)-1,2,4-oxadiazol-3-yl]phenyl]-2-methoxy-acetamide]",≥ 80%,42 to 46 °C,≥ 80%,–
"C=CCON(C)C(=O)Nc1ccc(-c2noc(C(F)(F)F)n2)cc1C [Compound 1.11, 1-allyloxy-1-methyl-3-[2-methyl-4-[5-(trifluoromethyl)-1,2,4-oxadiazol-3-yl]phenyl]urea]",≥ 80%,62 to 66 °C,–,–
"C=C(C)CONC(=O)Nc1ccc(-c2noc(C(F)(F)F)n2)cc1C [Compound 1.12, 1-(2-methylallyloxy)-3-[2-methyl-4-[5-(trifluoromethyl)-1,2,4-oxadiazol-3-yl]phenyl]urea]",≥ 80%,114 to 117 °C,≥ 80%,–
"C=CCONC(=O)Nc1ccc(-c2noc(C(F)(F)F)n2)cc1C [Compound 1.13, 1-allyloxy-3-[2-methyl-4-[5-(trifluoromethyl)-1,2,4-oxadiazol-3-yl]phenyl]urea]",≥ 80%,101 to 104 °C,≥ 80%,–
"CC(C)C(=O)Nc1ccc(-c2noc(C(F)(F)F)n2)cc1F [Compound 1.14, N-[2-fluoro-4-[5-(trifluoromethyl)-1,2,4-oxadiazol-3-yl]phenyl]-2-methyl-propanamide]",≥ 80%,–,–,–
"COCCC(=O)Nc1ccc(-c2noc(C(F)(F)F)n2)cc1F [Compound 1.15, N-[2-fluoro-4-[5-(trifluoromethyl)-1,2,4-oxadiazol-3-yl]phenyl]-3-methoxy-propanamide]",≥ 80%,–,–,≥ 80%
"CCC(C)C(=O)Nc1ccc(-c2noc(C(F)(F)F)n2)cc1F (stereo not drawn) [Compound 1.16, N-[2-fluoro-4-[5-(trifluoromethyl)-1,2,4-oxadiazol-3-yl]phenyl]-2-methyl-butanamide]",≥ 80%,–,–,–
"CC(CO)(CCl)C(=O)Nc1ccc(-c2noc(C(F)(F)F)n2)cc1F (stereo not drawn) [Compound 1.17, 2-(chloromethyl)-N-[2-fluoro-4-[5-(trifluoromethyl)-1,2,4-oxadiazol-3-yl]phenyl]-3-hydroxy-2-methyl-propanamide]",≥ 80%,–,≥ 80%,–
"CCC(COC)C(=O)Nc1ccc(-c2noc(C(F)(F)F)n2)cc1F (stereo not drawn) [Compound 1.18, N-[2-fluoro-4-[5-(trifluoromethyl)-1,2,4-oxadiazol-3-yl]phenyl]-2-(methoxymethyl) butanamide]",≥ 80%,–,≥ 80%,≥ 80%
"COCCCC(=O)Nc1ccc(-c2noc(C(F)(F)F)n2)cc1F [Compound 1.19, N-[2-fluoro-4-[5-(trifluoromethyl)-1,2,4-oxadiazol-3-yl]phenyl]-4-methoxy-butanamide]",≥ 80%,–,≥ 80%,–
"COCCC(=O)Nc1ccc(-c2noc(C(F)(F)F)n2)cc1C [Compound 1.21, 3-methoxy-N-[2-methyl-4-[5-(trifluoromethyl)-1,2,4-oxadiazol-3-yl]phenyl]propanamide]",≥ 80%,–,–,–
"Cc1cc(-c2noc(C(F)(F)F)n2)ccc1NC(=O)C(C)(CO)CCl (stereo not drawn) [Compound 1.23, 2-(chloromethyl)-3-hydroxy-2-methyl-N-[2-methyl-4-[5-(trifluoromethyl)-1,2,4-oxadiazol-3-yl]phenyl]propanamide]",≥ 80%,–,–,–
"CCC(COC)C(=O)Nc1ccc(-c2noc(C(F)(F)F)n2)cc1C (stereo not drawn) [Compound 1.24, 2-(methoxymethyl)-N-[2-methyl-4-[5-(trifluoromethyl)-1,2,4-oxadiazol-3-yl]phenyl]butanamide]",≥ 80%,–,–,–
"COCCCC(=O)Nc1ccc(-c2noc(C(F)(F)F)n2)cc1C [Compound 1.25, 4-methoxy-N-[2-methyl-4-[5-(trifluoromethyl)-1,2,4-oxadiazol-3-yl]phenyl]butanamide]",≥ 80%,–,–,–
"Cc1cc(-c2noc(C(F)(F)F)n2)ccc1NC(=O)CC#N [Compound 1.26, 2-cyano-N-[2-methyl-4-[5-(trifluoromethyl)-1,2,4-oxadiazol-3-yl]phenyl]acetamide]",≥ 80%,–,≥ 80%,–
"COC(C)C(=O)Nc1ccc(-c2noc(C(F)(F)F)n2)cc1C (stereo not drawn) [Compound 1.27, 2-methoxy-N-[2-methyl-4-[5-(trifluoromethyl)-1,2,4-oxadiazol-3-yl]phenyl]propanamide]",≥ 80%,–,–,≥ 80%
"Cc1cc(-c2noc(C(F)(F)F)n2)ccc1NC(=O)CC(F)(F)F [Compound 1.28, 3,3,3-trifluoro-N-[2-methyl-4-[5-(trifluoromethyl)-1,2,4-oxadiazol-3-yl]phenyl]propanamide]",–,–,≥ 80%,–
